Laboratory results as given in the supplement of paper PMC10307832.

Experiments:
Experiment in all cases: relative viability (nuclei count vs DMSO), 5 days (fraction); higher = more cells survive
Bexarotene + AZD7762 = compound: C=C(c1ccc(C(=O)O)cc1)c1cc2c(cc1C)C(C)(C)CCC2(C)C [Bexarotene] + NC(=O)Nc1cc(-c2cccc(F)c2)sc1C(=O)N[C@H]1CCCNC1 [AZD7762] (partner 0.2 µM)
In short: (§1)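 Lung cancer cell lines were pin-tool dosed in 1536-well plates on the day after seeding, with either a lone drug or a fixed anchor-drug dose plus five library-drug doses (not always all listed) in √10 steps. Nuclei were counted on 4× images after 5 days. Relative viability is the ratio of treated-well to vehicle-well nuclei counts, with each value a median of duplicate plates.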

Bexarotene + Tozasertib = compound: C=C(c1ccc(C(=O)O)cc1)c1cc2c(cc1C)C(C)(C)CCC2(C)C [Bexarotene] + Cc1cc(Nc2cc(N3CCN(C)CC3)nc(Sc3ccc(NC(=O)C4CC4)cc3)n2)n[nH]1 [Tozasertib] (partner 0.1 µM)
In short: as §1

Bexarotene + Trametinib = compound: C=C(c1ccc(C(=O)O)cc1)c1cc2c(cc1C)C(C)(C)CCC2(C)C [Bexarotene] + CC(=O)Nc1cccc(-n2c(=O)n(C3CC3)c(=O)c3c(Nc4ccc(I)cc4F)n(C)c(=O)c(C)c32)c1 [Trametinib] (partner 0.02 µM)
In short: as §1

Bexarotene = compound: C=C(c1ccc(C(=O)O)cc1)c1cc2c(cc1C)C(C)(C)CCC2(C)C [Bexarotene]
In short: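 Cells of lung cancer lines were placed in 1536-well plates and kept overnight at 37 °C. Pinning then delivered five library-drug doses (not always all listed), spaced by √10, onto plates anchored with vehicle, and the cells were left 5 days without changing medium. One step fixed, permeabilised and stained them with Hoechst, and MetaXpress counted nuclei in 4× images. Viability, as a median over plates, is treated-well nuclei divided by vehicle-well nuclei, with acceptance only at control CV below 25% and at least one doubling.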

Row | Cell Line | relative viability (Bexarotene + AZD7762; first compound 0.08 µM) | relative viability (Bexarotene + AZD7762; first compound 0.253 µM) | relative viability (Bexarotene + AZD7762; first compound 0.8 µM) | relative viability (Bexarotene + AZD7762; first compound 2.53 µM) | relative viability (Bexarotene + AZD7762; first compound 8 µM) | relative viability (Bexarotene + Tozasertib; first compound 0.08 µM) | relative viability (Bexarotene + Tozasertib; first compound 0.253 µM) | relative viability (Bexarotene + Tozasertib; first compound 0.8 µM) | relative viability (Bexarotene + Tozasertib; first compound 2.53 µM) | relative viability (Bexarotene + Tozasertib; first compound 8 µM) | relative viability (Bexarotene + Trametinib; first compound 0.08 µM) | relative viability (Bexarotene + Trametinib; first compound 0.253 µM) | relative viability (Bexarotene + Trametinib; first compound 0.8 µM) | relative viability (Bexarotene + Trametinib; first compound 2.53 µM) | relative viability (Bexarotene + Trametinib; first compound 8 µM) | relative viability (Bexarotene; 0.08 µM) | relative viability (Bexarotene; 0.253 µM) | relative viability (Bexarotene; 0.8 µM) | relative viability (Bexarotene; 2.53 µM) | relative viability (Bexarotene; 8 µM)
1 | H3255 | 0.948 | 0.941 | 0.975 | 0.851 | 1.05 | 0.696 | 0.612 | 0.578 | 0.731 | 0.618 | 0.715 | 0.759 | 0.615 | 0.626 | 0.674 | 1.07 | 0.949 | 1.05 | 0.988 | 1.01
2 | EPLC-272H | 0.199 | 0.259 | 0.517 | 0.208 | 0.271 | 0.278 | 0.262 | 0.307 | 0.286 | 0.341 | 0.318 | 0.277 | 0.285 | 0.322 | 0.314 | 1 | 0.93 | 0.802 | 0.881 | 0.939
3 | PC-3 [JPC-3] | 0.958 | 0.705 | 0.785 | 0.651 | 0.709 | 0.905 | 0.889 | 0.758 | 0.862 | 0.755 | 0.708 | 0.719 | 0.595 | 0.654 | 0.678 | 1.14 | 0.98 | 0.918 | 0.964 | 0.932
4 | NCI-H1793 | 0.442 | 0.68 | 0.511 | 0.505 | 0.504 | 0.308 | 0.319 | 0.394 | 0.287 | 0.337 | 0.395 | 0.4 | 0.415 | 0.397 | 0.408 | 1.12 | 0.93 | 0.754 | 0.838 | 0.881
5 | EKVX | 0.804 | 0.848 | 0.822 | 0.828 | 0.634 | 0.361 | 0.42 | 0.389 | 0.46 | 0.325 | 0.291 | 0.359 | 0.355 | 0.372 | 0.295 | 0.974 | 0.98 | 0.97 | 1.02 | 0.891
6 | ChaGo-K-1 | 0.934 | 0.828 | 0.813 | 0.832 | 0.873 | 0.259 | 0.234 | 0.264 | 0.223 | 0.223 | 1.02 | 1.02 | 0.978 | 1.05 | 0.932 | 1.09 | 1.01 | 1 | 1.03 | 0.989
7 | NCI-H23 | 0.297 | 0.239 | 0.231 | 0.261 | 0.196 | 0.383 | 0.619 | 0.365 | 0.287 | 0.333 | 0.447 | 0.435 | 0.395 | 0.364 | 0.347 | 1.17 | 0.927 | 0.952 | 0.82 | 0.899
8 | EMC-BAC-2 | 1.17 | 1.09 | 1.06 |  | 1.08 | 0.311 | 0.315 | 0.274 | 0.277 | 0.283 | 1.08 | 0.901 | 0.996 |  | 0.88 | 1.15 | 1.02 | 1 |  | 1.02
9 | LOU-NH91 | 0.85 | 0.766 | 0.759 | 0.741 | 0.712 | 0.643 | 0.624 | 0.665 | 0.637 | 0.598 | 0.81 | 0.856 | 0.807 | 0.795 | 0.759 | 1.04 | 0.957 | 0.952 | 0.869 | 0.926
10 | LU99A | 0.356 | 0.444 | 0.391 | 0.404 | 0.36 | 0.291 | 0.252 | 0.296 | 0.234 | 0.284 | 0.659 | 0.531 | 0.608 | 0.52 | 0.417 | 1.33 | 1.07 | 0.977 | 1.06 | 1.09
11 | NCI-H1395 | 0.399 | 0.432 | 0.39 | 0.407 | 0.39 | 0.754 | 0.77 | 0.746 | 0.687 | 0.799 | 1.18 | 1.03 | 1.15 | 0.908 | 1.1 | 1.06 | 0.905 | 1.01 | 0.75 | 0.957
12 | NCI-H460 | 0.694 | 0.701 | 0.701 | 0.668 | 0.735 | 0.541 | 0.452 | 0.481 | 0.399 | 0.427 | 0.153 | 0.155 | 0.13 | 0.199 | 0.177 | 1.04 | 0.976 | 0.986 | 0.944 | 0.946
13 | 201T | 0.796 | 0.612 | 0.714 | 0.591 | 0.514 | 0.926 | 0.86 | 0.891 | 0.92 | 0.808 | 0.751 | 0.724 | 0.713 | 0.704 | 0.643 | 1.02 | 0.989 | 0.971 | 0.942 | 0.93
14 | NCI-H1944 | 0.738 | 0.733 | 0.749 | 0.694 | 0.739 | 0.323 | 0.29 | 0.307 | 0.299 | 0.257 | 0.526 | 0.517 | 0.465 | 0.47 | 0.425 | 1.29 | 1.07 | 1.07 | 1.25 | 1.03
15 | NCI-H2405 | 0.887 | 0.681 | 0.711 | 0.761 | 0.801 | 0.786 | 0.752 | 0.54 | 0.759 | 0.715 | 0.823 | 0.819 | 0.66 | 0.749 | 0.693 | 1.12 | 1.01 | 0.857 | 0.97 | 0.986
16 | NCI-H1703 | 0.157 | 0.128 | 0.127 | 0.115 | 0.119 |  |  |  |  |  |  |  |  |  |  | 0.944 | 0.968 | 0.759 | 0.647 | 0.701
